Measurements as given in ChEMBL document CHEMBL1129824, “Nonpeptidic inhibitors of recombinant human calpain I” (Bioorg Med Chem Lett, 1997).

Key:
[1] = target: Chymotrypsinogen A (Bos taurus) (UniProt P00766); assay: Inhibitory activity using serine protease, alpha-chymotrypsin with Succ-Ala-Ala-Pro-Phe-AMC as substrate. The percent inhibition at 10 uM concentration, was reported.
Cathepsin B = Cathepsin B (Homo sapiens, UniProt P07858); assay: Inhibitory activity using cysteine protease, Cathepsin B with Cbz-Phe-Arg-AMC as substrate.
[2] = target: T1, Calpain-1 catalytic subunit (Homo sapiens, UniProt P07384); assay: Inhibitory activity using recombinant human Calpain 1 with Suc-Leu-Tyr-MNA as substrate.
T1 sequence (P07384 whole entry): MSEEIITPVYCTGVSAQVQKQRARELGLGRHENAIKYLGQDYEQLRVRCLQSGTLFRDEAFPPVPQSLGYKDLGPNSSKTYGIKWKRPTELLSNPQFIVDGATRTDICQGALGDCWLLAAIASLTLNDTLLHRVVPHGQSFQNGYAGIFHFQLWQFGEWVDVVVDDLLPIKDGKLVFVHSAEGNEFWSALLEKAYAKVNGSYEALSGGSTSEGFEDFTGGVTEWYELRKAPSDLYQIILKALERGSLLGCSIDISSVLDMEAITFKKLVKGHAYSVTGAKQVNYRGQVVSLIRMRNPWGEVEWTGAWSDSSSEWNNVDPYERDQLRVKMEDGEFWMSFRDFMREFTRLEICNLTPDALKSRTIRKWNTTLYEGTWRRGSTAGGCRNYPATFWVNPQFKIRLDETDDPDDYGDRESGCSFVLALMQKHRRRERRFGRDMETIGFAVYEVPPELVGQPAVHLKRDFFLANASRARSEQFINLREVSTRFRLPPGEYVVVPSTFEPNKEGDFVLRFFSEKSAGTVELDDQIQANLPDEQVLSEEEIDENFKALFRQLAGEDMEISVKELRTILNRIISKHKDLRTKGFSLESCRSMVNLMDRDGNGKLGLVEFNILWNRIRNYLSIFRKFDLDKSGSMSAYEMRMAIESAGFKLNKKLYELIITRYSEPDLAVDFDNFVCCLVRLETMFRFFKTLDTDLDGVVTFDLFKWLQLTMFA

[3] = target: Prothrombin (Homo sapiens) (UniProt P00734); assay: Inhibitory activity using serine protease, thrombin with Cbz-Phe-Val-Arg-AMC as substrate. The percent inhibition at 10 uM concentration, was reported.

Row | inhibition [1] [%] | IC50 (Cathepsin B) [nM] | IC50 [2] [nM] | inhibition [3] [%] | Structure (SMILES)
1 | 18 | 60 | 30 | 2 | CC(C)C[C@H](CC[S+]([O-])c1ccc2ccccc2c1)C(=O)N[C@H](C=O)CC(C)C (some centres not stated)
2 | 11 | 60 | 75 | 5 | CC(C)C[C@H](CCSc1ccc2ccccc2c1)C(=O)N[C@H](C=O)CC(C)C
3 | 12 |  |  | 2 | CC(C)C[C@@H](CCS(=O)(=O)c1ccc2ccccc2c1)C(=O)N[C@H](C=O)CC(C)C
4 | 11 |  |  | 1 | CC(C)C[C@H](CCS(=O)(=O)c1ccc2ccccc2c1)C(=O)N[C@H](C=O)CC(C)C
